# In patent US20060110456A1, “Method for biocidal and/or biostatic treatment and compositions therefor” (NATIONAL UNIVERSITY OF SINGAPORE, priority 2004, published 2006):
# Entries after “also recorded” stand apart in the source; their conditions may differ. Counter-ions that a name gives are not always drawn.
# Columns and labels:
# [1] = test system: hard fouling (barnacles, serpulids, spirorbids); experiment: Field testing of coated rods; type: in vivo; design: Total hard fouling, difference in mean cover (%), drug vs control / Barnacles, difference in mean cover (%), drug vs control: tested at 25 µg/ml of coating; Serpulids, difference in mean cover (%), drug vs control: tested at 25 µg/ml of coating mix; conditions: for Overall performance in field assay: crude rank, best (1) to worst (8); for Barnacles, difference in mean cover (%), drug vs VC50 / Serpulids, difference in mean cover (%), drug vs VC50 / Spirorbids, difference in mean cover (%), drug vs VC50 / Total hard fouling, difference in mean cover (%), drug vs VC50: drug + VC50 rods vs VC50 control; for Barnacles, difference in mean cover (%), drug vs control / Serpulids, difference in mean cover (%), drug vs control / Spirorbids, difference in mean cover (%), drug vs control / Total hard fouling, difference in mean cover (%), drug vs control: drug + VC50 rods vs uncoated blank control; for Effect of addition of drug on antifouling performance of VC50 coating (total hard fouling) / Reduction of total hard fouling cover compared to VC50 alone: drug at 25 ug per ml of VC50 coating; for Barnacles Mean cover (%) / Serpulids Mean cover (%) / Spirorbids Mean cover (%) / Total hard fouling Mean cover (%): rods coated with drug + VC50, field test; for Total hard fouling Mean cover (%): percentage cover within 6 mm×50 mm transect
# Description: Fouling on rods occurs more rapidly than on flat panels, enabling rapid assessment of the performance of coatings.
# 6 mm diameter glass rods were cut to 150 mm length and prepared prior to coating by baking in a furnace at 150° C. for 24 hours and then cooling in a dessicator.
# All pharmaceuticals were obtained in commercially available form. All tablets were reduced to fine powder with a mortar and pestle, and capsules were opened to extract the contents. The amount of drug powder required to attain the desired concentrations for all tests was calculated from product dosage information and then measured by weight on a high-resolution electronic balance. This was added to the coating and mixed thoroughly prior to application to obtain the concentration of 25 ug active ingredient per ml of coating mix.
# The commercial antifouling product used to benchmark field experiments was VC Offshore with Teflon® manufactured by International Coatings.
# For our experiments, a reduced copper coating (“VC50”) was prepared by mixing approximately 20 g of #YBA779 into 100 ml of #YBA707. The prepared coating was then allowed to stand so that bubbles from the mixing process dissipated. 15 ml centrifuge tubes were filled with 10 mls of prepared coating. Prepared glass rods were then immersed in the coating to a height of 100 mm and then suspended on a frame to air dry until coating cured.
# Five replicate rods were tested for every experimental treatment, including controls. Two sets of controls were used, an uncoated blank control and a VC50 control without pharmaceutical additives. Rod were randomly arrayed on plastic vexar mesh attached to PVC frames and suspended at a depth of 10 cm from the water surface. […] Rods were examined visually weekly for the duration of testing, which typically lasts between 6 to 10 weeks. All fouling was scored as percentage cover of each category within a 6 mm×50 mm transect on each rod.
# Bugula neritina larvae = experiment: Bioassay against bryozoan larvae; type: in vivo; conditions: crude rank, best (1) to worst (8)
# Description: Bugula neritina (Phylum Bryozoa, Class Gymnolaemata, Order Cheilostomatida) is a cosmopolitan species of bryozoan, commonly found in most marine fouling communities. The larvae are brooded in ovicells found on the stem of the colonies. When released, the larva will settle quickly on most surfaces, within a few minutes. At 24° C., the settled larvae forms the one-cell ancestrula, and after 48 hours, the lophophore has developed and extended for feeding.
# Adult colonies of Bugula neritina were collected from fouling communities growing on the submerged pontoons on a floating fish farm located off Changi, Singapore. Adult animals were maintained in the open-circulation aquarium at St John's island marine laboratory, Singapore. The adults were kept in total darkness for 24 hours. On exposure to light, larvae were released after half an hour. […] Because the larvae will settle quickly, larvae were pipetted directly into test wells in 1 ml of seawater using a graduated glass pipette.
# 4 replicates were done for each treatment. After 24 hours, larvae were scored as settled, swimming or dead/deformed. The assay plates were usually kept for another 24 hours and checked again, to ascertain that the settled larvae had developed into viable colonies with lophophores. Two trials were repeated for each compound.
# Bioassays were carried out using the method described above, in July 2003 during the peak spawning season for Bugula.
# [2] = test system: biofilm bacteria (strains 4, 9, 14, 20, 27, 28); experiment: Effect of pharmaceuticals on adhesion of bacteria to plastic / biofilm formation on NTC and TC plates; type: cell-based, marine bacteria isolated from Singapore fouling communities; conditions: for Effect on formation of bacterial biofilms on NTC and TC plates: 25 ug ml−1, NTC = untreated polystyrene, TC = tissue-culture treated, strains 4, 9, 14, 20, 27, 28; for Prevention of formation of biofilm: crude rank, best (1) to worst (8)
# Description: Commercial forms of pharmaceuticals were used as previously described. […] These samples were sonicated for at least 1 min and these fine suspensions were used as initial stock solutions.
# For studies of bacterial adhesion, the pharmaceuticals were first sterilized by soaking in absolute alcohol (Merck) for half an hour. Ethanol was removed by air-drying with air passed through 0.25 μm pore size syringe filter (Sartorius, Germany). Stock solutions were concentrations of 100 μg ml−1 in SDI.
# The effect of pharmaceuticals on bacterial adhesion was analyzed using a modified microplate method adapted from Shea and Williamson (1990). This method employs a combination of staining attached bacteria with crystal violet, releasing the stain with sodium desoxycholate, and measuring the resulting absorbance of the crystal violet.
# Detailed results for six selected strains are presented here: strains 4, 9, 14, 20, 27, 28. The bacterial strains were grown in Marine Broth (Pronadisa, Spain) overnight, in the dark, at 28° C. on a rotary shaker (150 rpm) in 5 ml centrifuge tubes (Falcon). Cells were harvested by centrifugation (1500×g, 10 min) and resuspended in sterile seawater (SSW). SSW was prepared by filtering seawater through a 0.2 μm pore size filter (Sartorius) followed by autoclaving. The cells were centrifuged and resuspended once more in SSW. The concentration of resuspended cells was adjusted to A600=1.0 using a spectrophotometer (Beckman DU530, USA).
# Flat bottom 96 well polystyrene (hydrophobic, Falcon 351172) (=NTC) and tissue-culture treated polystyrene (hydrophilic, Falcon 353072) (=TC) microplates were used in the analyses. Each test was performed in triplicate. Two sets of experiments were conducted. […] For the control and blank wells, 25 ul of SDI were added. For wells containing pharmaceuticals, 25 ul of the respective pharmaceutical at a concentration of 100 ug ml−1 were added. This was immediately followed by the addition of 75 ul of bacterial suspension. To blanks were added 75 ul of SSW.
# The bacterial cells in suspension were allowed to attach for 2 h at 28° C. Unattached cells were removed by aspiration using a plate washer (Tecan, Austria) and wells were rinsed three times with 200 ul of SSW each time. The attached cells were stained with 200 ul of crystal violet solution (0.1% w/v in deionized water) in each well for 5 min. After removing the stain using the plate washer, the wells were rinsed twice with 300 ul of SDI each time. Sodium desoxycholate (200 ul) solution (2% w/v in deionized water) was added to each well to extract the crystal violet from the attached stained cells for 10 min. The absorbance of the crystal violet was read at 590 nm using a microplate reader (Sunrise, Tecan, Austria).
# Results of the adhesion assay were obtained by the difference in absorbance readings between wells containing bacterial cells and the mean of absorbance of those containing the SSW only. The effect of the pharmaceuticals on bacterial adhesion was determined by the examining the differences in absorbance between the wells containing the pharmaceuticals+bacteria and the bacteria. The significance was compared using T-test.
# [3] = coated rods, 25 ug active ingredient per ml of VC50 coating
SMILES,"Total hard fouling, mean cover [1, 3]","Performance against barnacles ([1]; coated rods, in words)",Overall performance in field assay [1],"Barnacles, difference in mean cover (%), drug vs VC50 [1]","Serpulids, difference in mean cover (%), drug vs VC50 [1]","Spirorbids, difference in mean cover (%), drug vs VC50 [1]","Total hard fouling, difference in mean cover (%), drug vs VC50 [1]","Barnacles, difference in mean cover (%), drug vs control [1]","Serpulids, difference in mean cover (%), drug vs control [1]","Spirorbids, difference in mean cover (%), drug vs control [1]","Total hard fouling, difference in mean cover (%), drug vs control [1]",Barnacles Mean cover (%) [1],Serpulids Mean cover (%) [1],Spirorbids Mean cover (%) [1],Total hard fouling Mean cover (%) [1],Prevention of settlement of Bugula larvae (Bugula neritina larvae),Prevention of formation of biofilm [2],Reduction of total hard fouling cover compared to VC50 alone [1],"Effect of addition of drug on antifouling performance of VC50 coating (total hard fouling) ([1]; in words, hydrochloride)",Effect on formation of bacterial biofilms on NTC and TC plates ([2]; hydrochloride),other results
"Cc1cc2c(s1)Nc1ccccc1N=C2N1CCN(C)CC1 [ZPX, olanzapine]",17.3%,only significant for barnacles,3,−23.3%,−1.67%,−12.66%,−37.7%,−86.3%,−3.33%,+9%,−80.7%,6.67%,0%,10.67%,17.3%,6,1,–,–,–,"Effect of addition of drug on antifouling performance of VC50 coating (total hard fouling) ([1]; in words): significantly improved performance against total hard fouling; also recorded: significantly improved the performance of VC50 coating; Effect on formation of bacterial biofilms on NTC and TC plates [2]: prevented biofilm formation for all 6 strains in the NTC plates, and slightly reduced the biofilm formation in strains 4 on the TC plates; also recorded: marked reduction of biofilm growth for all strains on NTC, but only a slight reduction for strain 4 on TC"
"CN(C)C(=O)C(CCN1CCC(O)(c2ccc(Cl)cc2)CC1)(c1ccccc1)c1ccccc1 [IMD, Loperamide hydrochloride]",0.67%,significantly less than on both controls,1,–,–,–,–,–,–,–,–,–,–,–,–,7,7,54.3%,significantly increased the fouling resistance of the base coating; also recorded: significantly improved the performance of VC50 coating,"On NTC, there was a slight reduction in strain 28; also recorded: reduction of biofilm growth in strain 28 on NTC but not on TC","Reduction of total hard fouling cover compared to blank controls ([1]; coated rods): 97.3%; Barnacles, mean cover [1, 3]: 0.67%; Serpulids, mean cover [1, 3]: 0%; Spirorbids, mean cover [1, 3]: 0%; Performance against spirorbid polychaetes ([1]; coated rods, in words, hydrochloride): exclude spirorbid settlement; also recorded: no settlement by spirorbids; Barnacles, difference in mean cover vs VC50 ([1]; vs VC50 control): −29.3%; Serpulids, difference in mean cover vs VC50 ([1]; vs VC50 control): −1.67%; Spirorbids, difference in mean cover vs VC50 ([1]; vs VC50 control): −23.33%; Total hard fouling, difference in mean cover vs VC50 ([1]; vs VC50 control): −54.3%; Barnacles, difference in mean cover vs control ([1]; vs uncoated blank control): −92.3%; Serpulids, difference in mean cover vs control ([1]; vs uncoated blank control): −3.33%; Spirorbids, difference in mean cover vs control ([1]; vs uncoated blank control): −1.67%; Total hard fouling, difference in mean cover vs control ([1]; vs uncoated blank control): −97.3%"
"CN1CCN(C(c2ccccc2)c2ccccc2)CC1 [CYZ, Cyclizine hydrochloride]",–,significantly lower than both blank and VC50 controls,5,−13%,−1.67%,−5%,−19.7%,−77.34%,−6.67%,+6%,−78.0%,10.33%,0%,11.67%,22.0%,5,8,47.2%,marginally increased the performance of VC50 coating; also recorded: significantly improved the performance of VC50 coating,significantly more bacteria adhesion for strain 9; also recorded: No significant reduction in biofilm formation,"Performance against serpulid polychaetes ([1]; coated rods, in words): significantly enhanced the performance of VC50 against serpulid polychaetes"
"CN1CCN(CCCN2c3ccccc3Sc3ccc(C(F)(F)F)cc32)CC1 [TFZ, Trifluoperazine hydrochloride]",–,–,–,–,–,–,–,–,–,–,–,–,–,–,–,2,4,–,–,"reduced biofilm formation on NTC plates; also recorded: active against strain 4, 14, 27 on NTC but no reduction of biofilms was observed on the TC plates",–
